In ChEMBL document CHEMBL1201862, “PubChem BioAssay data set” (2004):
Activity calls are given as the source filed them.

How the values were obtained:
Mu-type opioid receptor = Mu-type opioid receptor (Homo sapiens, UniProt P35372); format: functional, cell-based;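 note: U2OS cells with beta-arrestin recruitment to OPRM1 by beta-gal complementation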
[1] = biological target: 5-hydroxytryptamine receptor 2A (Mus musculus, UniProt P35363); format: functional, cell-based;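 note: CHO-K1 cells with tagged receptor and beta-arrestin; agonist potency measured as compound-induced activation of the receptor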
Chain of 5-hydroxytryptamine receptor 2A (P35363 whole entry, the tested form may be a part): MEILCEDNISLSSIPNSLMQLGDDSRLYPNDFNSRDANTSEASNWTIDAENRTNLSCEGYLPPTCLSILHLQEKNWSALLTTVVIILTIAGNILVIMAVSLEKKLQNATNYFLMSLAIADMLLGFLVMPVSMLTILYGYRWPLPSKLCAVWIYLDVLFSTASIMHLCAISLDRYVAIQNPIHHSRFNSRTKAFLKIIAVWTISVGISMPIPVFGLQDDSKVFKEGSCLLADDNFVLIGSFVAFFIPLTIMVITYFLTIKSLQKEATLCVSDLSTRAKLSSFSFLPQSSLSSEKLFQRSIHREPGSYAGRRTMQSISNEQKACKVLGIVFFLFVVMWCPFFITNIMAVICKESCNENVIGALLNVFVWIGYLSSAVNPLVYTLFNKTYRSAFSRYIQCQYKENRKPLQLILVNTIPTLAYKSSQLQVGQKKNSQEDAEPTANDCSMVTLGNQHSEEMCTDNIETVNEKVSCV

[2] = HIV-1 AD8 envelope cell-cell fusion blockers – cherry-pick, dose response (AID 652062); format: functional, cell-based;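 note: luciferase signal from cell-cell fusion driven by HIV-1 clade B AD8 Env; potency is for inhibitors of fusion seen as a drop in luminescence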
[3] = Luminescence Cell-Based Dose Retest to Confirm Inhibitors of Cancer Stem Cells. [Related pubchem assays (depositor defined):AID2717, AID2721]; format: functional; conditions: Homo sapiens
Phospholipase A2 = Phospholipase A2 (Homo sapiens, UniProt P04054); format: functional;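 note: confirmatory dose-response counterscreen on phospholipase A2, testing hits that came from an ultra-high-throughput screen for ATG4B inhibitors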
Chain of Phospholipase A2 (P04054 whole entry): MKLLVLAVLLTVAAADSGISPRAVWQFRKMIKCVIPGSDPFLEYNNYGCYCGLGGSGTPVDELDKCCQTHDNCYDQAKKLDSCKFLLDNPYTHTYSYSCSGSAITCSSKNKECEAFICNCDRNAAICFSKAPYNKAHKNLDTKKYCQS

Cysteine protease ATG4B = biological target: T1, Cysteine protease ATG4B (Homo sapiens, UniProt Q9Y4P1); format: functional;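 note: Fluorescence-based dose-response confirmation assay measuring inhibition of ATG4B activity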
T1 sequence (Q9Y4P1 whole entry): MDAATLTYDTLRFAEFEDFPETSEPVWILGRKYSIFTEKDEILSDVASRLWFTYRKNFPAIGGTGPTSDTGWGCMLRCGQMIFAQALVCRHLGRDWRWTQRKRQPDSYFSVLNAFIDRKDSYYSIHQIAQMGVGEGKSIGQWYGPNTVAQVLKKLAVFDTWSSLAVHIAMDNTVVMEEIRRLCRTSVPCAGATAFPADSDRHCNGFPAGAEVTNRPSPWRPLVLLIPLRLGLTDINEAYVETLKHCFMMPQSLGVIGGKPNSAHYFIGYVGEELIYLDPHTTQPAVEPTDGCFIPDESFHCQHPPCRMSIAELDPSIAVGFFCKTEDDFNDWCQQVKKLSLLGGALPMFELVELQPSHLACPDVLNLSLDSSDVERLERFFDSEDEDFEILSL

[4] = viability loss in CEM21 cells – cell-based, CellTiter-Glo luminescence, cherry-picked, cytotoxicity control for viral fusion inhibitor project, dose response (AID 652042); format: functional;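 note: potency for signal decrease meaning cytotoxicity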
[5] = blockers of HIV-1 envelope-mediated cell-cell fusion – cherry-pick, dose response (AID 652057); format: functional, cell-based
[6] = off-target signal loss in HeLa-CEM21 co-culture – HeLa F-luc CTL cells, cherry-picked, counter-screen for HIV-1 Env fusion inhibitor project, dose response (AID 652040); format: functional, cell-based;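 note: potency for signal decrease marking cytotoxic or nonspecific inhibition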
[7] = biological target: T2, Nuclear receptor subfamily 0 group B member 1 (Homo sapiens, UniProt P51843); format: functional, cell-based;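 note: HEK293T cells transfected with SF-1 and DAX-1 plus StAR promoter luciferase reporter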
T2 sequence (P51843 whole entry): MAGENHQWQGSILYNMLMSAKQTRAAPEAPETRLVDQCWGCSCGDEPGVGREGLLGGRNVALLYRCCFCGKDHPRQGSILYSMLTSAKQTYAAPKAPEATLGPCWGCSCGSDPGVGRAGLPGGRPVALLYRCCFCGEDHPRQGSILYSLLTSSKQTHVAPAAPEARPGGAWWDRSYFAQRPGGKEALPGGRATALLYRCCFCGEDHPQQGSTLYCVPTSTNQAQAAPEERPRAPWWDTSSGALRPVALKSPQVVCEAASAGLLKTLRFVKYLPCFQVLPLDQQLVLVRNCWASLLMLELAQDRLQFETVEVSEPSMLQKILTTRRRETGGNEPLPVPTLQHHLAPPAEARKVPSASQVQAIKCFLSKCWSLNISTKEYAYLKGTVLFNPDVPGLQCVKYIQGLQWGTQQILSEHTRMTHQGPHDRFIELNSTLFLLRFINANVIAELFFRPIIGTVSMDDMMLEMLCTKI

HEK293 = test: EBV LMP1 TES2 canonical NF-kB signalling blockers – cell-based, HEK293, luciferase, cherry-pick, dose response (AID 588343); format: functional; conditions: Homo sapiens
[8] = blockers of bursicon-stimulated LGR2 cAMP reporter – cell-based, HEK293, CRE-luciferase reporter, cherry pick, set 2, dose response (AID 743343); format: functional;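 note: transfected cells were stimulated with diluted bursicon conditioned medium after compound addition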
[9] = blockade of melanocortin 4 receptor signaling – cell-based, plate reader, cherry pick, counter-screen for LGR2 antagonist project, dose response (AID 743444); format: functional;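 note: transfected HEK 293 cells stimulated with alpha-MSH peptide; potency of inhibitors of the alpha-MSH evoked signal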
[10] = luciferase reporter signal suppression in cells – H4 neuroglioma cells, luminescence, dose response (AID 1990); format: functional, cell-based
[11] = Luminescence Cell-Based Dose Response HTS to Identify Inhibitors of 5'UTR Stem-Loop Driven Prion Protein mRNA Translation in H4 Neuroglioblastoma Cells. [Related pubchem assays: 1827 (Project Summary), 1813 (Primary HTS)]; format: functional
[12] = alpha-synuclein stem-loop luciferase translation blockers – H4 neuroglioma cells, luminescence, confirmation (AID 1988); format: functional, cell-based
cells [13] = format: functional, cell-based
[14] = blockers of HIV-1 ZM109 envelope-driven cell-cell fusion – HeLa effector, CEM target cells, luciferase, cherry-pick, dose response (AID 652058); format: functional, cell-based;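 note: luciferase signal from HIV-1 Env mediated cell-cell fusion of effector and target cells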
[15] = NIH3T3 cell viability loss – ATP luminescence, mouse fibroblasts, counter-screen, dose response (AID 2010); format: functional, cell-based;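 note: cells exposed to compound for about 90 hours before reading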
[16] = Trypanosoma cruzi growth suppression in host cells – NIH3T3 host cells, beta-gal luminescence, confirmation (AID 2044); format: functional, cell-based;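 note: intracellular parasites grown in NIH/3T3 mouse fibroblasts as host cells; luminescent beta-galactosidase reporter signal from transgenic T. cruzi replicating inside host cells; inhibitors lower the luminescence signal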
Beta-galactosidase = Beta-galactosidase (Escherichia coli, UniProt Q8VNN2); test: Dose response counterscreen for EBI2 assay utilizing the enzyme, b-galactosidase.; format: functional
Chain of Beta-galactosidase (Q8VNN2 whole entry): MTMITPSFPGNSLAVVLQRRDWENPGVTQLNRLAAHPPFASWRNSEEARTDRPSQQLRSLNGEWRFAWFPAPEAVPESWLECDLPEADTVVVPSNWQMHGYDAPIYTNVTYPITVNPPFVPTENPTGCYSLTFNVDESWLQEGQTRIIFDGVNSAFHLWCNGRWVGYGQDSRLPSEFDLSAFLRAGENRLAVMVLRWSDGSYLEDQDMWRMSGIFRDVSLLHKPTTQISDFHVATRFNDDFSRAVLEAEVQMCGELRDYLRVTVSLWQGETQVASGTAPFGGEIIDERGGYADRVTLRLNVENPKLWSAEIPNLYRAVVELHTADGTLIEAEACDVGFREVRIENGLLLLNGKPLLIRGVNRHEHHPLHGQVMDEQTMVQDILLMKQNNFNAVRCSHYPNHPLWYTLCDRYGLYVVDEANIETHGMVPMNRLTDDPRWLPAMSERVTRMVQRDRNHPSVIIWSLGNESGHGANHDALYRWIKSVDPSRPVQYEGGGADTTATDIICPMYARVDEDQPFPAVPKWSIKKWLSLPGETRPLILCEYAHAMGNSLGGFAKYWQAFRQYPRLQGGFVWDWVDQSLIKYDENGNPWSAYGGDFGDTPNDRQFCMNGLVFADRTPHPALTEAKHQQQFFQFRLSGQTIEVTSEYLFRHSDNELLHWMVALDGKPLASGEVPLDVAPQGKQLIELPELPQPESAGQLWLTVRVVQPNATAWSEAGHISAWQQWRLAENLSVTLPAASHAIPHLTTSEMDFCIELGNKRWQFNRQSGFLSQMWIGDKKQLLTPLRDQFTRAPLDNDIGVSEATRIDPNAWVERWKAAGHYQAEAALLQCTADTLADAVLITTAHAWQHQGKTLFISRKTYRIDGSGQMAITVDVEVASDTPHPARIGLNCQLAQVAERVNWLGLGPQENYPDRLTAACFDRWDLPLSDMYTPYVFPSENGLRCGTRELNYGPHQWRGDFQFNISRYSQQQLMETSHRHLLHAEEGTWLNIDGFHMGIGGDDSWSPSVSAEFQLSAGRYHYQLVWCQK

Beta-lactamase [17] = biological target: T3, Beta-lactamase (Pseudomonas aeruginosa, UniProt Q79MP6); test: […] counterscreen for selective VIM-2 inhibitors: dose response biochemical high throughput screening assay to identify inhibitors of IMP-1 metallo-beta-lactamase.
T3 sequence (Q79MP6 whole entry): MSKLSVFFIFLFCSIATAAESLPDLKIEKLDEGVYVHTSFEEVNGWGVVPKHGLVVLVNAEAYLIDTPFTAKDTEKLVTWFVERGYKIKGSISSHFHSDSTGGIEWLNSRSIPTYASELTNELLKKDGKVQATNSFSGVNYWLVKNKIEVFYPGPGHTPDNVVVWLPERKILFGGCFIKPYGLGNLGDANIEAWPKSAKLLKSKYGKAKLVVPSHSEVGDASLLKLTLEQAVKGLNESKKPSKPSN

Beta-lactamase [18] = biological target: Beta-lactamase (Salmonella choleraesuis (strain SC-B67), UniProt Q5J463); test: Epi-absorbance-based counterscreen for selective VIM-2 inhibitors: dose response biochemical high throughput screening assay to identify inhibitors of TEM-1 serine-beta-lactamase.
Chain of Beta-lactamase (Salmonella choleraesuis (strain SC-B67), UniProt Q5J463) (Q5J463 whole entry): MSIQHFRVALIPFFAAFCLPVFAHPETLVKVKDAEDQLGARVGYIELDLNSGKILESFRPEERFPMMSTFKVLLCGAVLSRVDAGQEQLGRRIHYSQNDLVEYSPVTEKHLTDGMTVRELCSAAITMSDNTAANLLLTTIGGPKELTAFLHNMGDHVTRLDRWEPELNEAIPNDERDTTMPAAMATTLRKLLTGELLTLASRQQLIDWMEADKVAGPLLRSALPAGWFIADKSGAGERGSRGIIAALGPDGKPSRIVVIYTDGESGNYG

Beta-lactamase [19] = biological target: T3, Beta-lactamase; test: inhibition of IMP-1 beta-lactamase activity – biochemical, epi-absorbance, selectivity assay for VIM-2 inhibitor project, dose response (AID 1920)
[20] = biological target: T4, Histone-lysine N-methyltransferase NSD2 (Homo sapiens, UniProt O96028); format: biochemical
T4 sequence (O96028 whole entry): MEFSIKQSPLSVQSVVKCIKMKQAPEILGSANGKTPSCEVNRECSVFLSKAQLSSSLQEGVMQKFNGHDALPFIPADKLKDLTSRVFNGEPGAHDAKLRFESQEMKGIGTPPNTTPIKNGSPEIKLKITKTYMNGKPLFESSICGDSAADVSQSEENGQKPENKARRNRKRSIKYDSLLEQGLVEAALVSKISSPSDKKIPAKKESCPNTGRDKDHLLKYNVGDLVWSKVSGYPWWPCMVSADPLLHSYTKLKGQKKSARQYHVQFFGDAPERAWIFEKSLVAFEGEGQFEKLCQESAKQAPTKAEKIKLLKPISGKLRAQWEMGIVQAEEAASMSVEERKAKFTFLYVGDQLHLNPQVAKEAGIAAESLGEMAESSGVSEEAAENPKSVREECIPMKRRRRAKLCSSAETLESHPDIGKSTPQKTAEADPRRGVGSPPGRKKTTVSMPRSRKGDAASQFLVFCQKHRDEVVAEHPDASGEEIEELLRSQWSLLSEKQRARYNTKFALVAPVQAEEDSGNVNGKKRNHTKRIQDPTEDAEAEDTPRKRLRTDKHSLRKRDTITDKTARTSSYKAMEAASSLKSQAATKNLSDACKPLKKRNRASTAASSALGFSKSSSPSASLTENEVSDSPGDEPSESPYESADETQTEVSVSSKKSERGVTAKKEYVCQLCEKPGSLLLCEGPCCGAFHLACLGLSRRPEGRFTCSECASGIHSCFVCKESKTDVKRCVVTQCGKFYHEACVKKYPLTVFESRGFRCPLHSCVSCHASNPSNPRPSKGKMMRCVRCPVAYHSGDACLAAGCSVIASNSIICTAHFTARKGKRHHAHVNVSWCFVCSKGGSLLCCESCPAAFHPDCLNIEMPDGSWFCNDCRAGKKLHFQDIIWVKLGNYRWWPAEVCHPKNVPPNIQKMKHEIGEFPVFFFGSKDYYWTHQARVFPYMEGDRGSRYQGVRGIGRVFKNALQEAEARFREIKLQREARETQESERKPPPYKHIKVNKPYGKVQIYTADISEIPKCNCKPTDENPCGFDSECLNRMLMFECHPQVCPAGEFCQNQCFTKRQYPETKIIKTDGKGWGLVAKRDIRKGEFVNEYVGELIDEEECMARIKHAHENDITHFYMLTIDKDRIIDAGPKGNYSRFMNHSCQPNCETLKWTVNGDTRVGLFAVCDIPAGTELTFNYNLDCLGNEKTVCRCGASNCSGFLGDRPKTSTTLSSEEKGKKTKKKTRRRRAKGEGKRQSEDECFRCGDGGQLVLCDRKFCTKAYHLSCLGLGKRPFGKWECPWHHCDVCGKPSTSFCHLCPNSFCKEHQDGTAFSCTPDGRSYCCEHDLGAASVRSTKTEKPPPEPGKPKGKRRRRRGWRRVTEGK

[21] = biological target: T5, Sentrin-specific protease 8 (Homo sapiens, UniProt Q96LD8); format: functional
T5 sequence (Q96LD8 whole entry): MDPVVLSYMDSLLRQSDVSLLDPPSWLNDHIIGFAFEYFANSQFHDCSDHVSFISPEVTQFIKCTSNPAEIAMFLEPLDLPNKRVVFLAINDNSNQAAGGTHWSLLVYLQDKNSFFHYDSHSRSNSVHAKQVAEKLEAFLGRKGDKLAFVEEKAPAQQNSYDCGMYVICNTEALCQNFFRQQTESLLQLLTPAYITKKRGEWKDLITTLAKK

[22] = biological target: T5, Sentrin-specific protease 8; format: functional; remark: listed apart in the source
cells [23] = format: functional, cell-based; remark: listed apart in the source
cells [24] = format: functional, cell-based; remark: listed apart in the source
INS1 = test: INS-1E survival protection against cytokine death – cell-based, luminescence, retest, dose response (AID 449756); format: functional; conditions: Rattus norvegicus;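 note: cell death triggered by IL-1 beta plus TNF-alpha plus IFN-gamma mixture; protective hits raise ATP signal compared with cytokine alone wells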
Cytochrome P450 1A2 = biological target: T6, Cytochrome P450 1A2 (Homo sapiens, UniProt P05177);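 note: PubChem cytochrome P450 panel assay, CYP1A2 panel member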
T6 sequence (P05177 whole entry): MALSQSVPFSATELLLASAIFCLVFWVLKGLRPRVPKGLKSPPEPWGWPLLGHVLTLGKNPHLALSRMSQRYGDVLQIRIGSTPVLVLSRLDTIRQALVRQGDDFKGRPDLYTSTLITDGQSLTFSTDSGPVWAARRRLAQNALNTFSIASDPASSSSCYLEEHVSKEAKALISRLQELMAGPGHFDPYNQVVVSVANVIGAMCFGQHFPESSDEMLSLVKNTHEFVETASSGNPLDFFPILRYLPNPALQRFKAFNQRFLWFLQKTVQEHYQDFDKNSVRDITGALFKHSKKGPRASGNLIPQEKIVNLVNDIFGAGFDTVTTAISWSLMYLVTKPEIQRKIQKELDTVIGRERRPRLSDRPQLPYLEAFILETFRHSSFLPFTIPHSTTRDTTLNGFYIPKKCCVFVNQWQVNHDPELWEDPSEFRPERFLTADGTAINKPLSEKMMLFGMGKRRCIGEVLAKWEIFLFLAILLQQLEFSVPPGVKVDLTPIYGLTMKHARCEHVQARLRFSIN

Cytochrome P450 2C9 = Cytochrome P450 2C9 (Homo sapiens, UniProt P11712)
Chain of Cytochrome P450 2C9 (P11712 whole entry): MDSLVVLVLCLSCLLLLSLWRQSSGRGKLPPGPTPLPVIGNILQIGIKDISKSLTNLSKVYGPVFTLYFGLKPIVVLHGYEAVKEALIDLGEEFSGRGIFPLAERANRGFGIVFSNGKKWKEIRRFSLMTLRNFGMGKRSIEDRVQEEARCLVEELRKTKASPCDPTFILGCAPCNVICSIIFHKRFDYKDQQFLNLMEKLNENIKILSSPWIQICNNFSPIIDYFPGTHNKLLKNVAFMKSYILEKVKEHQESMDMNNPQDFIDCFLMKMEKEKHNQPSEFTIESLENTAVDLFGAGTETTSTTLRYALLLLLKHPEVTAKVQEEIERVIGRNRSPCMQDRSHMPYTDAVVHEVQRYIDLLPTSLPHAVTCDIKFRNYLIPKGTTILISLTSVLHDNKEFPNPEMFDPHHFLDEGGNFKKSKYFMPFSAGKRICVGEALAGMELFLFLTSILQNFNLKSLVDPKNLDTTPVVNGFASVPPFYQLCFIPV

Chain of Mu-type opioid receptor (P35372 whole entry): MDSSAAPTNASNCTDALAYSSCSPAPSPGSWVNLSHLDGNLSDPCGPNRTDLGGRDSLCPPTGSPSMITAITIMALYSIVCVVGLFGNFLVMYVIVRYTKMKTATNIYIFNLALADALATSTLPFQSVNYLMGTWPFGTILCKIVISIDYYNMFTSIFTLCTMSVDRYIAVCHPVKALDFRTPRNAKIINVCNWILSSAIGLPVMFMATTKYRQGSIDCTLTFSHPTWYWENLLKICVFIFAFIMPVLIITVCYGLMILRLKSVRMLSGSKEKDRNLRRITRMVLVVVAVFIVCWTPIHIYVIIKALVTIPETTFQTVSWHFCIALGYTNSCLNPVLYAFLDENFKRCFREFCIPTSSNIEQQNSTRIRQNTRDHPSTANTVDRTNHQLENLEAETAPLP

For `CCCN1CCO[C@@H]2c3cc(O)ccc3OC[C@H]21`, the EC50 (Mu-type opioid receptor) was 92.5 µM (inactive) and the EC50 [1] was 0.0216 µM (active).

With `CCC(=O)NC(=S)Nc1cccc(Cl)c1N1CCCCC1` the AC50 [2] was 38.5 µM (active), the AC50 [3] was 5.27 µM (active) and the IC50 (Phospholipase A2) was 3.78 µM (active). For the same compound, the IC50 (Cysteine protease ATG4B) was 6.09 µM (active), the AC50 [4] was 36.5 µM (active) and the AC50 [5] was 17.3 µM (active). For the same compound, the AC50 [6] was > 70 µM (inactive).

With `COC(=O)c1ccc2nc(-c3cccc(N)c3)cn2c1` the IC50 [7] was > 0.834 µM (active), the AC50 (HEK293) was 2.21 µM (active) and the AC50 [8] was 3.22 µM (active). The AC50 [9] was 2.62 µM (active), the EC50 [10] was > 60 µM (not active) and the EC50 [11] was > 60 µM (not active). The EC50 [12] was 6.89 µM (active) and the IC50 (cells [13]) was > 67.5 µM (inactive).

For `COc1ccc(C2c3c(-c4ccccc4O)n[nH]c3C(=O)N2CCc2ccc(OC)c(OC)c2)cc1` (configuration not stated), the AC50 [2] was 1.17 µM (active), the AC50 [14] was 2.44 µM (active) and the AC50 [4] was 65.5 µM (active). For the same compound, the AC50 [5] was 1.94 µM (active) and the AC50 [6] was 3.07 µM (active).

For `O=C(c1ccc2ccccc2c1)N1CCN(S(=O)(=O)/C=C/c2ccccc2)CC1`, the EC50 [15] was > 30 µM (not active), the EC50 [16] was 1.1 µM (active) and the IC50 (Beta-galactosidase) was > 80 µM (inactive).

For `O=C(c1cc2ccccc2o1)N1CCN(S(=O)(=O)/C=C/c2ccccc2)CC1`, the IC50 (Beta-galactosidase) was > 80 µM (inactive).

In the case of `O=C(CSc1nnc(NC(=O)c2cc(Br)ccc2Cl)s1)NCC1CCCO1` (configuration not stated), the IC50 (Beta-lactamase [17]) was > 59.6 µM (inactive), the IC50 (Beta-lactamase [18]) was > 59.6 µM (inactive) and the IC50 (Beta-lactamase [19]) was > 59.6 µM (inactive).

In the case of `Cc1n[nH]c(O)c1C(c1ccc(-c2ccc(Cl)cc2)o1)c1c(C)n[nH]c1O`, the AC50 [20] was 8.22 µM (active), the IC50 [21] was 12.9 µM (active) and the IC50 [22] was 36.3 µM (active).

In the case of `CCCN1CN(CCc2ccccc2)CN=C1S`, the EC50 (cells [23]) was > 29.9 µM (inactive) and the IC50 (cells [24]) was > 29.9 µM (inactive).

In the case of `c1cnc(N2CCN(Cc3c[nH]c4ccccc34)CC2)nc1`, the EC50 (Mu-type opioid receptor) was 92.5 µM (inactive), the EC50 [1] was 0.424 µM (active) and the AC50 (INS1) was 4.57 µM (active).

With `CCOC(=O)c1[nH]c(C(=O)O)c(CCC(=O)OC)c1C` the AC50 (Cytochrome P450 1A2) was 0.251 µM (inconclusive), the IC50 (Beta-lactamase [17]) was 29.4 µM (inactive) and the IC50 (Beta-lactamase [18]) was > 59.6 µM (inactive). For the same compound, the IC50 (Beta-lactamase [19]) was > 59.6 µM (inactive) and the AC50 (Cytochrome P450 2C9) was 31.6 µM (inconclusive).
